According to ChEMBL document CHEMBL4316596, “Antimicrobial Peptides with High Proteolytic Resistance for Combating Gram-Negative Bacteria” (J Med Chem, 2019):

Tests used:
Pseudomonas aeruginosa [1] = experiment: Bactericidal activity against Pseudomonas aeruginosa CICC 21625 clinical isolates incubated for 4 hrs followed by culture spread on agar plates and cultured overnight; assay type: functional; conditions: CICC 21625, 4 h, read-out: MBC>99.9
Pseudomonas aeruginosa [2] = experiment: Bactericidal activity against Pseudomonas aeruginosa PAO1 incubated for 4 hrs followed by culture spread on agar plates and cultured overnight; assay type: functional; conditions: PAO1, 4 h, read-out: MBC>99.9
Escherichia coli [3] = experiment: Bactericidal activity against Escherichia coli 078 incubated for 4 hrs followed by culture spread on agar plates and cultured overnight; assay type: functional; conditions: Escherichia coli, 078, 4 h; read-out: MBC>99.9
Escherichia coli [4] = experiment: Antimicrobial activity against Escherichia coli UB1005 after 24 hrs by NCCLS-protocol based assay; assay type: functional; conditions: UB1005, 24 h
Klebsiella pneumoniae [5] = experiment: Bactericidal activity against Klebsiella pneumoniae incubated for 4 hrs followed by culture spread on agar plates and cultured overnight; assay type: functional; conditions: read-out: MBC>99.9
Salmonella typhimurium [6] = experiment: Antimicrobial activity against Salmonella typhimurium C7731 after 24 hrs by NCCLS-protocol based assay; assay type: functional, Salmonella enterica subsp. enterica serovar Typhimurium; conditions: Salmonella enterica, C7731, 24 h
Escherichia coli [7] = experiment: Antimicrobial activity against Escherichia coli K99 after 24 hrs by NCCLS-protocol based assay; assay type: functional; conditions: K99, 24 h
Pseudomonas aeruginosa [8] = experiment: Bactericidal activity against Pseudomonas aeruginosa ATCC 27853 incubated for 4 hrs followed by culture spread on agar plates and cultured overnight; assay type: functional; conditions: ATCC 27853, 4 h, read-out: MBC>99.9
[9] = Bactericidal activity against Salmonella pullorum C7913 incubated for 4 hrs followed by culture spread on agar plates and cultured overnight; assay type: functional, Salmonella enterica subsp. enterica serovar Pullorum; conditions: Salmonella enterica, C7913, 4 h; read-out: MBC>99.9
Salmonella typhimurium [10] = experiment: Bactericidal activity against Salmonella typhimurium ATCC 14028 incubated for 4 hrs followed by culture spread on agar plates and cultured overnight; assay type: functional, Salmonella enterica subsp. enterica serovar Typhimurium; conditions: Salmonella enterica, ATCC 14028, 4 h; read-out: MBC>99.9
Pseudomonas aeruginosa [11] = experiment: Antimicrobial activity against Pseudomonas aeruginosa 25349 clinical isolates after 24 hrs by NCCLS-protocol based assay; assay type: functional; conditions: Pseudomonas aeruginosa, 25349, 24 h
Pseudomonas aeruginosa [12] = experiment: Bactericidal activity against Pseudomonas aeruginosa 26305 clinical isolates incubated for 4 hrs followed by culture spread on agar plates and cultured overnight; assay type: functional; conditions: Pseudomonas aeruginosa, 26305, 4 h; read-out: MBC>99.9
Pseudomonas aeruginosa [13] = experiment: Antimicrobial activity against Pseudomonas aeruginosa 26305 clinical isolates after 24 hrs by NCCLS-protocol based assay; assay type: functional; conditions: Pseudomonas aeruginosa, 26305, 24 h
Escherichia coli [14] = experiment: Bactericidal activity against Escherichia coli UB1005 incubated for 4 hrs followed by culture spread on agar plates and cultured overnight; assay type: functional; conditions: UB1005, 4 h, read-out: MBC>99.9
Pseudomonas aeruginosa [15] = experiment: Bactericidal activity against Pseudomonas aeruginosa 25349 clinical isolates incubated for 4 hrs followed by culture spread on agar plates and cultured overnight; assay type: functional; conditions: Pseudomonas aeruginosa, 25349, 4 h; read-out: MBC>99.9
Escherichia coli [16] = experiment: Antimicrobial activity against Escherichia coli 078 after 24 hrs by NCCLS-protocol based assay; assay type: functional; conditions: Escherichia coli, 078, 24 h
Pseudomonas aeruginosa [17] = experiment: Antimicrobial activity against Pseudomonas aeruginosa CICC 21625 clinical isolates after 24 hrs by NCCLS-protocol based assay; assay type: functional; conditions: CICC 21625, 24 h
Acinetobacter baumannii [18] = experiment: Bactericidal activity against Acinetobacter baumannii incubated for 4 hrs followed by culture spread on agar plates and cultured overnight; assay type: functional; conditions: read-out: MBC>99.9
Acinetobacter baumannii [19] = experiment: Antimicrobial activity against Acinetobacter baumannii after 24 hrs by NCCLS-protocol based assay; assay type: functional
Escherichia coli [20] = experiment: Bactericidal activity against Escherichia coli K88 incubated for 4 hrs followed by culture spread on agar plates and cultured overnight; assay type: functional; conditions: K88, 4 h, read-out: MBC>99.9
Salmonella typhimurium [21] = experiment: Bactericidal activity against Salmonella typhimurium C7731 incubated for 4 hrs followed by culture spread on agar plates and cultured overnight; assay type: functional, Salmonella enterica subsp. enterica serovar Typhimurium; conditions: Salmonella enterica, C7731, 4 h; read-out: MBC>99.9
Pseudomonas aeruginosa [22] = experiment: Antimicrobial activity against Pseudomonas aeruginosa ATCC 27853 after 24 hrs by NCCLS-protocol based assay; assay type: functional; conditions: ATCC 27853, 24 h
Escherichia coli [23] = experiment: Bactericidal activity against Escherichia coli K99 incubated for 4 hrs followed by culture spread on agar plates and cultured overnight; assay type: functional; conditions: K99, 4 h, read-out: MBC>99.9
Klebsiella pneumoniae [24] = experiment: Antimicrobial activity against Klebsiella pneumoniae after 24 hrs by NCCLS-protocol based assay; assay type: functional
Pseudomonas aeruginosa [25] = experiment: Bactericidal activity against Pseudomonas aeruginosa CICC 21630 clinical isolates incubated for 4 hrs followed by culture spread on agar plates and cultured overnight; assay type: functional; conditions: CICC 21630, 4 h, read-out: MBC>99.9
Pseudomonas aeruginosa [26] = experiment: Antimicrobial activity against Pseudomonas aeruginosa CICC 21630 clinical isolates after 24 hrs by NCCLS-protocol based assay; assay type: functional; conditions: CICC 21630, 24 h
Pseudomonas aeruginosa [27] = experiment: Antimicrobial activity against Pseudomonas aeruginosa PAO1 after 24 hrs by NCCLS-protocol based assay; assay type: functional; conditions: PAO1, 24 h
Salmonella typhimurium [28] = experiment: Antimicrobial activity against Salmonella typhimurium ATCC 14028 after 24 hrs by NCCLS-protocol based assay; assay type: functional, Salmonella enterica subsp. enterica serovar Typhimurium; conditions: Salmonella enterica, ATCC 14028, 24 h
Escherichia coli [29] = experiment: Antimicrobial activity against Escherichia coli K88 after 24 hrs by NCCLS-protocol based assay; assay type: functional; conditions: K88, 24 h
Escherichia coli [30] = experiment: Bactericidal activity against Escherichia coli ATCC 25922 incubated for 4 hrs followed by culture spread on agar plates and cultured overnight; assay type: functional; conditions: ATCC 25922, 4 h, read-out: MBC>99.9
[31] = Antimicrobial activity against Salmonella pullorum C7913 after 24 hrs by NCCLS-protocol based assay; assay type: functional, Salmonella enterica subsp. enterica serovar Pullorum; conditions: Salmonella enterica, C7913, 24 h
Escherichia coli [32] = experiment: Antimicrobial activity against Escherichia coli ATCC 25922 after 24 hrs by NCCLS-protocol based assay; assay type: functional; conditions: ATCC 25922, 24 h

H-LKPLLKPLLKPLLKPLLKPL-NH2
32 µM: MIC95 (Pseudomonas aeruginosa [11]) | MIC95 (Pseudomonas aeruginosa [13]) | MIC95 (Klebsiella pneumoniae [24]) | MIC95 (Pseudomonas aeruginosa [26])
64 µM: MBC (Klebsiella pneumoniae [5]) | MBC (Pseudomonas aeruginosa [12]) | MBC (Pseudomonas aeruginosa [15]) | MBC (Pseudomonas aeruginosa [25])
16 µM: MIC95 (Salmonella typhimurium [6]) | MBC (Pseudomonas aeruginosa [8]) | MBC (Salmonella typhimurium [10]) | MBC (Salmonella typhimurium [21]) | MIC95 (Pseudomonas aeruginosa [22])
4 µM: MIC95 (Escherichia coli [16]) | MBC (Acinetobacter baumannii [18]) | MIC95 (Acinetobacter baumannii [19]) | MBC (Escherichia coli [23]) | MBC (Escherichia coli [30]) | MIC95 [31]
2 µM: MIC95 (Escherichia coli [4]) | MIC95 (Escherichia coli [7]) | MBC (Escherichia coli [20]) | MIC95 (Escherichia coli [29]) | MIC95 (Escherichia coli [32])
8 µM: MBC (Escherichia coli [3]) | MBC [9] | MBC (Escherichia coli [14]) | MIC95 (Salmonella typhimurium [28])
> 64 µM: MBC (Pseudomonas aeruginosa [1]) | MBC (Pseudomonas aeruginosa [2]) | MIC95 (Pseudomonas aeruginosa [17]) | MIC95 (Pseudomonas aeruginosa [27])

H-LKPLLKPLLKPLLKPLLKPLLKPLLKPLLKPL-NH2
16 µM: MBC (Pseudomonas aeruginosa [1]) | MBC (Pseudomonas aeruginosa [15])
4 µM: MIC95 (Salmonella typhimurium [6]) | MBC [9] | MBC (Salmonella typhimurium [10]) | MIC95 (Pseudomonas aeruginosa [11]) | MIC95 (Pseudomonas aeruginosa [13]) | MBC (Escherichia coli [14]) | MIC95 (Pseudomonas aeruginosa [17]) | MBC (Salmonella typhimurium [21]) | MIC95 (Pseudomonas aeruginosa [26])
1 µM: MIC95 (Escherichia coli [7]) | MBC (Acinetobacter baumannii [18]) | MIC95 (Acinetobacter baumannii [19]) | MBC (Escherichia coli [20]) | MIC95 (Klebsiella pneumoniae [24]) | MIC95 (Pseudomonas aeruginosa [27]) | MIC95 (Escherichia coli [29]) | MBC (Escherichia coli [30]) | MIC95 (Escherichia coli [32])
8 µM: MBC (Pseudomonas aeruginosa [12]) | MBC (Pseudomonas aeruginosa [25])
2 µM: MBC (Pseudomonas aeruginosa [2]) | MBC (Escherichia coli [3]) | MIC95 (Escherichia coli [4]) | MBC (Klebsiella pneumoniae [5]) | MBC (Pseudomonas aeruginosa [8]) | MIC95 (Escherichia coli [16]) | MIC95 (Pseudomonas aeruginosa [22]) | MBC (Escherichia coli [23]) | MIC95 (Salmonella typhimurium [28]) | MIC95 [31]

H-LRPLLRPLLRPLLRPL-NH2
8 µM: MBC (Acinetobacter baumannii [18]) | MBC (Escherichia coli [20]) | MIC95 (Escherichia coli [29]) | MBC (Escherichia coli [30]) | MIC95 [31] | MIC95 (Escherichia coli [32])
32 µM: MIC95 (Escherichia coli [4]) | MIC95 (Escherichia coli [7]) | MBC (Escherichia coli [14]) | MBC (Escherichia coli [23]) | MIC95 (Salmonella typhimurium [28])
64 µM: MIC95 (Salmonella typhimurium [6]) | MBC (Salmonella typhimurium [10]) | MIC95 (Pseudomonas aeruginosa [17]) | MBC (Salmonella typhimurium [21])
16 µM: MBC (Escherichia coli [3]) | MBC [9] | MIC95 (Escherichia coli [16])
2 µM: MIC95 (Acinetobacter baumannii [19])
> 64 µM: MBC (Pseudomonas aeruginosa [1]) | MBC (Pseudomonas aeruginosa [2]) | MBC (Klebsiella pneumoniae [5]) | MBC (Pseudomonas aeruginosa [8]) | MIC95 (Pseudomonas aeruginosa [11]) | MBC (Pseudomonas aeruginosa [12]) | MIC95 (Pseudomonas aeruginosa [13]) | MBC (Pseudomonas aeruginosa [15]) | MIC95 (Pseudomonas aeruginosa [22]) | MIC95 (Klebsiella pneumoniae [24]) | MBC (Pseudomonas aeruginosa [25]) | MIC95 (Pseudomonas aeruginosa [26]) | MIC95 (Pseudomonas aeruginosa [27])

H-LRPLLRPLLRPLLRPLLRPL-NH2
32 µM: MBC (Pseudomonas aeruginosa [1]) | MBC (Pseudomonas aeruginosa [2]) | MIC95 (Pseudomonas aeruginosa [11]) | MBC (Pseudomonas aeruginosa [12]) | MIC95 (Pseudomonas aeruginosa [13]) | MBC (Pseudomonas aeruginosa [15]) | MIC95 (Pseudomonas aeruginosa [17]) | MIC95 (Pseudomonas aeruginosa [22]) | MIC95 (Pseudomonas aeruginosa [27])
8 µM: MBC (Klebsiella pneumoniae [5]) | MBC (Escherichia coli [14]) | MBC (Salmonella typhimurium [21]) | MBC (Escherichia coli [23]) | MIC95 (Klebsiella pneumoniae [24])
4 µM: MBC (Escherichia coli [3]) | MIC95 (Escherichia coli [4]) | MIC95 (Salmonella typhimurium [6]) | MIC95 (Escherichia coli [7]) | MBC [9] | MIC95 (Escherichia coli [16]) | MBC (Acinetobacter baumannii [18]) | MBC (Escherichia coli [20]) | MIC95 (Salmonella typhimurium [28]) | MBC (Escherichia coli [30]) | MIC95 (Escherichia coli [32])
16 µM: MBC (Pseudomonas aeruginosa [8]) | MBC (Salmonella typhimurium [10]) | MBC (Pseudomonas aeruginosa [25]) | MIC95 (Pseudomonas aeruginosa [26])
2 µM: MIC95 (Acinetobacter baumannii [19]) | MIC95 (Escherichia coli [29]) | MIC95 [31]

H-LRPLLRPLLRPLLRPLLRPLLRPLLRPLLRPL-NH2
8 µM: MBC (Pseudomonas aeruginosa [1]) | MIC95 (Pseudomonas aeruginosa [17])
2 µM: MBC (Escherichia coli [3]) | MIC95 (Escherichia coli [4]) | MIC95 (Salmonella typhimurium [6]) | MBC [9] | MIC95 (Pseudomonas aeruginosa [11]) | MIC95 (Pseudomonas aeruginosa [13]) | MIC95 (Pseudomonas aeruginosa [22]) | MBC (Escherichia coli [23]) | MIC95 (Klebsiella pneumoniae [24]) | MIC95 (Pseudomonas aeruginosa [27]) | MIC95 (Salmonella typhimurium [28]) | MBC (Escherichia coli [30]) | MIC95 (Escherichia coli [32])
4 µM: MBC (Pseudomonas aeruginosa [2]) | MBC (Klebsiella pneumoniae [5]) | MBC (Pseudomonas aeruginosa [8]) | MBC (Salmonella typhimurium [10]) | MBC (Pseudomonas aeruginosa [12]) | MBC (Escherichia coli [14]) | MBC (Pseudomonas aeruginosa [15]) | MBC (Salmonella typhimurium [21]) | MBC (Pseudomonas aeruginosa [25]) | MIC95 (Pseudomonas aeruginosa [26])
1 µM: MIC95 (Escherichia coli [7]) | MIC95 (Escherichia coli [16]) | MBC (Acinetobacter baumannii [18]) | MIC95 (Acinetobacter baumannii [19]) | MBC (Escherichia coli [20]) | MIC95 (Escherichia coli [29]) | MIC95 [31]
